According to PMC9774128, “New Insights into the Mechanism of Antibacterial Action of Synthetic Peptide Mo-CBP3-PepI against Klebsiella pneumoniae” (Antibiotics, 2022):

Tests used:
K. pneumoniae biofilm = test: Antibiofilm assay: inhibition of biofilm formation, crystal violet; assay type: cell-based, Klebsiella pneumoniae; settings: peptide 31.25 μg mL^−1; 48 h, 37 °C; crystal violet O.D. 600 nm; triplicate, three independent experiments
Method: The antibiofilm assay was conducted in flat-bottom 96-well polystyrene microplates as described by Neto et al.. A single colony of K. pneumoniae was collected in stock Petri plates containing inoculated Mueller–Hinton agar. The colony was used as inoculum for 5 mL of Mueller–Hinton broth, and the media was incubated for 24 h in the dark at 37 °C. In sequence, the O.D. of the cell suspension was measured using a microplate reader (Epoch, BioTek) and adjusted to 0.1 at 630 nm with Mueller–Hinton broth. For the inhibition of biofilm formation, 50 µL of the cell ([…]) suspension was incubated with 50 µL of the peptide (31.25 μg mL^−1) solution and 50 µL of the respective controls described above. The incubation lasted for 48 h at 37 °C. For the biofilm degradation assay, 50 µL of the cell suspension was incubated for 24 h at 37 °C. After this, 50 µL of the peptide solution and the respective controls were added to the wells containing the preformed biofilm and incubated for 24 h at 37 °C.
After incubation, both wells of biofilm formation inhibition and biofilm degradation were washed once with a sterile saline solution. Then, the wells were fixated with 100 µL methanol 99% for 15 min. […] Then, the crystals stained on the biofilm were diluted with 200 µL of 33% acetic acid, and the O.D was measured using a wavelength of 600 nm. […]

K. pneumoniae cells [1] = test: ROS overproduction (DCFH-DA fluorescence microscopy); assay type: cell-based, Klebsiella pneumoniae; settings: peptide 31.25 µg mL^−1, 24 h, 1 mM DCFH-DA 30 min
Method: This assay was conducted in the same way as above but with a few differences. The preparation of cell suspension and the antimicrobial assay was performed in the same way described above. After the three rounds of centrifugation and washes, the cells were incubated with 1 mM 2,7-dichlorofluorescein diacetate (DCFH-DA) for 30 min, in the dark, at 37 °C. After the washes, the cells were also observed under a fluorescence microscope (Olympus System BX60; excitation wavelength, 488 nm; emission wavelength, 525 nm).

K. pneumoniae cells [2] = settings: 31.25 µg mL^−1, 24 h
Method: After this, samples were washed twice with 50 mM sodium acetate pH 5.2, with centrifugations at 12,000× g for 15 min at 4 °C. At the end of the washes, the samples were resuspended in 300 µL in the same buffer and frozen for 24 h. Then, the frozen samples were sonicated for 30 min to break the cell wall and membrane, the samples were centrifuged again, and the supernatant was collected.
After that, the Bradford assay was performed to determine the protein concentration in the samples. This step was followed by adding a 10 mM DTT solution under incubation for 1 h at 37 °C to reduce the proteins. Then iodoacetamide was added to a final concentration of 15 mM and incubated for 30 min in a dark room to alkylate the reduced proteins. The proteins reduced and alkylated were digested using trypsin gold (Promega, Madison, WI, USA) to a final concentration of 1:20 (w/w) as described by manufacturers. The trypsin digestion was performed for 16 h at 37 °C. Finally, the samples were dried in a speed vacuum (Eppendorf, Hamburg, Germany) for 3 h and analyzed by ESI-QUAD-TOF mass spectrometer.
Tandem mass spectra were extracted into PKL files for both samples, and the proteins were searched using MASCOT MS/MS ions search from MATRIX SCIENCE (https://www.matrixscience.com/cgi/search_form.pl?FORMVER=2&SEARCH=MIS (accessed on 15 September 2022)) against UP625_E_coli_K12 (AA), UP808_K_pneumoniae and SwissProt databases (the taxonomy was set in bacteria). The terms for the search were: fixed modifications to Carbamidomethyl (C); variable modifications to Oxidation […]; the Peptide tolerance was set to 1.2 DA (with 1% FDR); the MS/MS tolerance was set to 0.6 DA; the peptide charge was set to 2+, 3+, and 4+; and finally, the instrument was set to ESI-QUAD-TOF. The proteins identified in both samples were searched for in UNIPROT and separated into 3 sets (unique from control, unique from the cells treated with Mo-CBP3-PepI, and Mo-CBP3-PepI x control shared proteins).
The proteins with a fold-change value ≥ 1.5 (p < 0.05, Tukey’s test) that were up-accumulated (increased the abundance), and proteins with a fold-change value ≤ 0.5 (p < 0.05, Tukey’s test) that were down-accumulated (decreased the abundance) were taken into consideration for comparisons. For each protein, its corresponding FASTA file was downloaded. Then, the blast2go program (https://www.blast2go.com/ (accessed on 30 September 2022)) was used to categorize the proteins detected by Gene Ontology (GO) annotation according to Molecular function, […], and subcellular location.

[3] = set-up: method as in PMID 30389515; settings: design feature; cited from earlier work
Description: Synthetic antimicrobial peptides emerged as a solution to solve the problems presented by natural antimicrobial peptides. […] To answer the first question, it is necessary to revert to the design process of Mo-CBP3-PepI.

CPAIQRCC [Mo-CBP3-PepI]
Inhibition of Biofilm Formation (%) (K. pneumoniae biofilm): 11.87 ± 0.001%
ROS overproduction (K. pneumoniae cells [1]): slight accumulation of ROS
Fold Change Mo-CBP3-PepI vs. DMSO: Methylenetetrahydrofolate--tRNA-(uracil-5-)-methyltransferase TrmFO (K. pneumoniae cells [2]; A4WRQ2): 0.948
Fold Change Mo-CBP3-PepI vs. DMSO: 50S ribosomal protein L22 (K. pneumoniae cells [2]; A5IYY1): 0.187
Fold Change Mo-CBP3-PepI vs. DMSO: Phosphoenolpyruvate carboxykinase (ATP) (K. pneumoniae cells [2]; A8AQV7): 0.990
Fold Change Mo-CBP3-PepI vs. DMSO: Xylose isomerase (K. pneumoniae cells [2]; B5ZQV6): 1.062
Fold Change Mo-CBP3-PepI vs. DMSO: Pantothenate synthetase (K. pneumoniae cells [2]; B8I2Z3): 1.142
Fold Change Mo-CBP3-PepI vs. DMSO: Chaperonin GroEL (K. pneumoniae cells [2]; P0A6F5): 1.444
Fold Change Mo-CBP3-PepI vs. DMSO: Pantothenate kinase (K. pneumoniae cells [2]; P0A6I3): 0.548
Fold Change Mo-CBP3-PepI vs. DMSO: HTH-type transcriptional regulator ArgP (K. pneumoniae cells [2]; P0A8S1): 2.364
Fold Change Mo-CBP3-PepI vs. DMSO: 50S ribosomal protein L7/L12 (K. pneumoniae cells [2]; P0A466): 1.979
Fold Change Mo-CBP3-PepI vs. DMSO: Zinc resistance-associated protein (K. pneumoniae cells [2]; P0AAA9): 1.682
Fold Change Mo-CBP3-PepI vs. DMSO: Cysteine synthase A (K. pneumoniae cells [2]; P0ABK5): 0.596
Fold Change Mo-CBP3-PepI vs. DMSO: Fimbriae Z protein (K. pneumoniae cells [2]; P0AEL8): 0.690
Fold Change Mo-CBP3-PepI vs. DMSO: Ferrichrome outer membrane transporter/phage receptor (K. pneumoniae cells [2]; P06971): 1.063
Fold Change Mo-CBP3-PepI vs. DMSO: Iron (3+)-hydroxamate import system permease protein FhuB (K. pneumoniae cells [2]; P06972): 0.948
Fold Change Mo-CBP3-PepI vs. DMSO: 2-succinyl-5-enolpyruvyl-6-hydroxy-3-cyclohexene-1-carboxylate synthase (K. pneumoniae cells [2]; P17109): 3.486
Fold Change Mo-CBP3-PepI vs. DMSO: Sensor protein PhoQ (K. pneumoniae cells [2]; P23837): 0.823
Fold Change Mo-CBP3-PepI vs. DMSO: Lipopolysaccharide core biosynthesis protein RfaZ (K. pneumoniae cells [2]; P27241): 2.038
Fold Change Mo-CBP3-PepI vs. DMSO: Inner membrane protein YhjD (K. pneumoniae cells [2]; P37642): 0.362
Fold Change Mo-CBP3-PepI vs. DMSO: Gamma-glutamylputrescine oxidoreductase (K. pneumoniae cells [2]; P37906): 0.985
Fold Change Mo-CBP3-PepI vs. DMSO: Endonuclease 8 (K. pneumoniae cells [2]; P50465): 0.287
Fold Change Mo-CBP3-PepI vs. DMSO: Sensor histidine kinase GlrK (K. pneumoniae cells [2]; P52101): 0.752
Fold Change Mo-CBP3-PepI vs. DMSO: 2.3-bisphosphoglycerate-dependent phosphoglycerate mutase (K. pneumoniae cells [2]; P62707): 0.519
Fold Change Mo-CBP3-PepI vs. DMSO: Low affinity potassium transport system protein kup (K. pneumoniae cells [2]; P63183): 1.704
Fold Change Mo-CBP3-PepI vs. DMSO: Peptide methionine sulfoxide reductase MsrB (K. pneumoniae cells [2]; P75129): 14.104
Fold Change Mo-CBP3-PepI vs. DMSO: Probable cytosol aminopeptidase (K. pneumoniae cells [2]; P75206): 2.097
Fold Change Mo-CBP3-PepI vs. DMSO: tRNA uridine 5-carboxymethylaminomethyl modification enzyme MnmG (K. pneumoniae cells [2]; P75221): 0.487
Fold Change Mo-CBP3-PepI vs. DMSO: Phosphate acyltransferase (K. pneumoniae cells [2]; P75232): 3.096
Fold Change Mo-CBP3-PepI vs. DMSO: Putative ABC transporter ATP-binding protein MPN_334 (K. pneumoniae cells [2]; P75444): 1.336
Fold Change Mo-CBP3-PepI vs. DMSO: Putative acetyltransferase MPN_114 (K. pneumoniae cells [2]; P75448): 1.703
Fold Change Mo-CBP3-PepI vs. DMSO: Cytadherence high molecular weight protein 2 (K. pneumoniae cells [2]; P75471): 1.682
Fold Change Mo-CBP3-PepI vs. DMSO: Oligopeptide transport ATP-binding protein OppD (K. pneumoniae cells [2]; P75552): 0.948
Fold Change Mo-CBP3-PepI vs. DMSO: Phenylacetate-coenzyme A ligase (K. pneumoniae cells [2]; P76085): 1.666
Fold Change Mo-CBP3-PepI vs. DMSO: Sensor histidine kinase HprS (K. pneumoniae cells [2]; P76339): 0.213
Fold Change Mo-CBP3-PepI vs. DMSO: UDP-glucose 6-dehydrogenase (K. pneumoniae cells [2]; P76373): 0.902
Fold Change Mo-CBP3-PepI vs. DMSO: Cation efflux system protein CusC (K. pneumoniae cells [2]; P77211): 0.920
Fold Change Mo-CBP3-PepI vs. DMSO: Glycerate 3-kinase (K. pneumoniae cells [2]; P77364): 0.745
Fold Change Mo-CBP3-PepI vs. DMSO: Glutathione S-transferase YfcF (K. pneumoniae cells [2]; P77544): 0.273
Fold Change Mo-CBP3-PepI vs. DMSO: HTH-type transcriptional regulator SutR (K. pneumoniae cells [2]; P77626): 2.566
Fold Change Mo-CBP3-PepI vs. DMSO: Lon protease (K. pneumoniae cells [2]; P78025): 0.342
Fold Change Mo-CBP3-PepI vs. DMSO: Pyruvate kinase (K. pneumoniae cells [2]; P78031): 3.139
Fold Change Mo-CBP3-PepI vs. DMSO: Undecaprenyl-diphosphatase (K. pneumoniae cells [2]; Q2KX31): 1.340
Fold Change Mo-CBP3-PepI vs. DMSO: Periplasmic trehalase (K. pneumoniae cells [2]; Q4UZ12): 0.937
Fold Change Mo-CBP3-PepI vs. DMSO: GMP synthase (glutamine-hydrolyzing) (K. pneumoniae cells [2]; Q6APU2): 4.596
Fold Change Mo-CBP3-PepI vs. DMSO: Elongation factor G (K. pneumoniae cells [2]; Q7NAV3): 0.234
Fold Change Mo-CBP3-PepI vs. DMSO: Diaminopimelate decarboxylase (K. pneumoniae cells [2]; Q8K9C4): 3.546
Fold Change Mo-CBP3-PepI vs. DMSO: Bifunctional protein FolD (K. pneumoniae cells [2]; Q88WM8): 0.726
Fold Change Mo-CBP3-PepI vs. DMSO: Mgp-operon protein 3 (K. pneumoniae cells [2]; Q50341): 0.654
hydrophobic ratio [3]: 62%
net charge [3]: +1
